Experimental data published in paper PMC7904790 (Nature Communications, 2021).
Like-named read-outs stand apart in the source and are kept apart here.

Key:
[1] = system: T1, EML4-ALK WT; experiment: cells; parameters: CellTiter-Glo viability of Ba/F3 cells dependent on EML4-ALK, without IL-3; settings: Ba/F3 EML4-ALK, 72 h
T1 construct: EML4-ALK fusion, wild-type kinase domain, expressed in Ba/F3 cells
Description: To identify drugs that can overcome these mutations, we screened our focused 90-inhibitor library using Ba/F3 cells expressing EML4-ALK I1171N + F1174I and I1171N + L1198H. At a concentration of 50 nM, gilteritinib suppressed the viability of both wild-type (WT) and compound mutant Ba/F3 cells (Fig. 1a). Since gilteritinib has reported as multi-kinase inhibitor, we first evaluated whether the ALK inhibitory efficacy of gilteritinib is driven by on-target activity or not. As a result of western blot analysis, gilteritinib suppressed the autophosphorylation of ALK in EML4-ALK-expressing Ba/F3 cells (Fig. 1b and Supplementary Fig. 1). […] As well as Ba/F3 cell model, we verified the activity of gilteritinib to H3122 cell line that is EML4-ALK-positive NSCLC cells. […] Then, the inhibitory concentration of gilteritinib is matched between ALK phosphorylation and its downstream signals. […] Further, using the phosphoproteomics data, kinase substrate-enrichment analysis (KSEA) predicted activate kinase candidates as potential gilteritinib targets and identified ALK as the most likely regulated protein (Fig. 1e, Supplementary Figs. 3 and 4, and Supplementary Table 2). To establish Ba/F3 cells expression WT or mutant EML4-ALK, TPM3-NTRK1, and CD74-ROS1 fusion proteins, pLenti6.3 vectors containing the cDNA of these fusion oncogenes were transfected into 293FT cells using packaging plasmids (ViraPower) for lentivirus production. Ba/F3 cells were infected using lentivirus-containing medium supplemented with polybrene (8 μg/ml), and after 24 h of incubation, the infected cells were selected using 7 μg/ml blasticidin (Invitrogen) for 1 week. After selection, each EML4-ALK-, TPM3-NTRK1-, and CD74-ROS1-expressing cell line was cultured in D-10 without IL-3. […] To stablise H3122, JFCR-028-3, MCC-003 cells expression WT or mutant EML4-ALK, KRAS G12C, cells were infected using lentivirus-containing medium supplemented with polybrene (8 μg/ml). After 24 h of incubation, the infected cells were selected using 7 μg/ml blasticidin for H3122, JFCR028-3, and 10 μg/ml for MCC-003, respectively. To stablise H3122 cells expression AXL, pHAGE-AXL vector (purchased from addgene) was transfected into 293FT cells using packaging plasmids for lentivirus production. H3122 cells were infected using lentivirus-containing medium supplemented with polybrene (8 μg/ml), and after 24 h of incubation, EGFP-positive cells were sorted using FACSMelody (BD Bioscience, San Jose, CA, USA). To stablise NIH3T3 oncogene-expressing cells, cells were infected using lentivirus-containing medium supplemented with polybrene (8 μg/ml), and after 24 h of incubation, the infected cells were selected using 2 μg/ml blasticidin for 1 week.

[2] = system: H2228; experiment: cells; parameters: CellTiter-Glo viability of fusion-positive human cancer cell lines; settings: Homo sapiens, NCI-H2228, 72 h
[3] = system: H3122; experiment: cells; parameters: CellTiter-Glo viability of fusion-positive human cancer cell lines; settings: Homo sapiens, NCI-H3122, 72 h
[4] = system: MCC-003; experiment: cells; parameters: CellTiter-Glo viability of fusion-positive human cancer cell lines; settings: 72 h
[5] = system: JFCR-028-3; experiment: cells; parameters: CellTiter-Glo viability of fusion-positive human cancer cell lines; settings: 72 h
[6] = system: JFCR-018-1; experiment: cells; parameters: CellTiter-Glo viability of fusion-positive human cancer cell lines; settings: 72 h
[7] = system: KARPAS299; experiment: cells; parameters: CellTiter-Glo viability of fusion-positive human cancer cell lines; settings: Homo sapiens, KARPAS-299, 72 h
[8] = in vitro; parameters: CellTiter-Glo viability of parental Ba/F3 cells with IL-3 (counter-screen); settings: mouse, parental ba/f3 cells +il-3; with IL-3; read-out: IC50 parental Ba/F3 (+IL-3)
Description: To identify drugs that can overcome these mutations, we screened our focused 90-inhibitor library using Ba/F3 cells expressing EML4-ALK I1171N + F1174I and I1171N + L1198H. At a concentration of 50 nM, gilteritinib suppressed the viability of both wild-type (WT) and compound mutant Ba/F3 cells (Fig. 1a). Since gilteritinib has reported as multi-kinase inhibitor, we first evaluated whether the ALK inhibitory efficacy of gilteritinib is driven by on-target activity or not. As a result of western blot analysis, gilteritinib suppressed the autophosphorylation of ALK in EML4-ALK-expressing Ba/F3 cells (Fig. 1b and Supplementary Fig. 1). […] As well as Ba/F3 cell model, we verified the activity of gilteritinib to H3122 cell line that is EML4-ALK-positive NSCLC cells. […] Then, the inhibitory concentration of gilteritinib is matched between ALK phosphorylation and its downstream signals. […] Further, using the phosphoproteomics data, kinase substrate-enrichment analysis (KSEA) predicted activate kinase candidates as potential gilteritinib targets and identified ALK as the most likely regulated protein (Fig. 1e, Supplementary Figs. 3 and 4, and Supplementary Table 2).  Fig. 1 Identification of gilteritinib as an inhibitor of ALK-rearranged cancer cells. a Relative cell viability of parental (with IL-3), EML4-ALK wild-type (WT), EML4-ALK I1171N + F1174I, and EML4-ALK I1171N + L1198H Ba/F3 cells treated with 50 nM of the indicated inhibitors. Cell viability was analyzed using the CellTiter-Glo assay and calculated relative to the viability of dimethyl sulfoxide-treated Ba/F3 cells. b The suppression of phospho-ALK in I1171N + F1174I, I1171N + L1198H mutation-expressing Ba/F3 cells was evaluated using western blotting. Cells were treated with the indicated concentrations of gilteritinib for 3 h (n = 2). c The suppression of phospho-ALK and its downstream signals in H3122 parental cells and I1171N + F1174I compound mutation-expressing cells were evaluated using western blotting. […] N = 3 independent samples examined over three independent experiments and representative experiment data are presented as mean values ± SD. e Volcano plot displaying the −log10 (p-value) versus log2 (gilteritinib treatment/DMSO treatment) for all quantified phosphopeptides. The red diamond indicates phospho-ALK.

COc1cc(N2CCC(N3CCN(C)CC3)CC2)ccc1Nc1ncc(Cl)c(Nc2ccccc2P(C)(C)=O)n1 [Brigatinib]
IC50 [1]: […] | IC50 ([2]; read-out: Brigatinib IC50): 3.5 ± 1 nM | IC50 ([3]; read-out: Brigatinib IC50): 7.9 ± 3.7 nM | IC50 ([4]; read-out: Brigatinib IC50): 63 ± 11 nM | IC50 ([5]; read-out: Brigatinib IC50): 6.2 ± 1.5 nM | IC50 ([6]; read-out: Brigatinib IC50): 7.7 ± 0.46 nM | IC50 ([7]; read-out: Brigatinib IC50): 7.1 ± 2 nM | CC50 at 72 h [8]: 578 ± 113 nM

C[C@@H](Oc1cc(-c2cnn(C3CCNCC3)c2)cnc1N)c1c(Cl)ccc(F)c1Cl [Crizotinib]
IC50 [1]: […] | IC50 ([2]; read-out: Crizotinib IC50): 28 ± 14 nM | IC50 ([6]; read-out: Crizotinib IC50): 136 ± 14 nM | IC50 ([7]; read-out: Crizotinib IC50): 51 ± 5.3 nM | CC50 at 72 h [8]: 371 ± 50 nM

CCc1cc2c(cc1N1CCC(N3CCOCC3)CC1)C(C)(C)c1[nH]c3cc(C#N)ccc3c1C2=O [alectinib]
IC50 [1]: […] | IC50 ([2]; read-out: Alectinib IC50): 3.8 ± 1.2 nM | IC50 ([4]; read-out: Alectinib IC50): 765 ± 97 nM | IC50 ([7]; read-out: Alectinib IC50): 43 ± 7.5 nM | CC50 at 72 h [8]: 899 ± 12 nM

Cc1cc(Nc2ncc(Cl)c(Nc3ccccc3S(=O)(=O)C(C)C)n2)c(OC(C)C)cc1C1CCNCC1 [Ceritinib]
IC50 [1]: […] | IC50 ([2]; read-out: Ceritinib IC50): 10 ± 3.6 nM | IC50 ([3]; read-out: Ceritinib IC50): 15 ± 2.1 nM | IC50 ([4]; read-out: Ceritinib IC50): 74 ± 22 nM | IC50 ([5]; read-out: Ceritinib IC50): 12 ± 3.3 nM | IC50 ([6]; read-out: Ceritinib IC50): 30 ± 3 nM | IC50 ([7]; read-out: Ceritinib IC50): 16 ± 6.9 nM | CC50 at 72 h [8]: 623 ± 33 nM
